Conditions: Liquid, Vibrating tube method

CCCCCCC(=O)OCC(COC(=O)CCCCCC)(COC(=O)CCCCCC)COC(=O)CCCCCC [pentaerythritol tetraheptanoate]
Conditions	mass density [kg/m3]
283.14 K, 28046 kPa	1001
283.14 K, 28067 kPa	1001
283.14 K, 28089 kPa	1001.1
283.14 K, 28108 kPa	1001.1
283.14 K, 28129 kPa	1001.2
283.14 K, 28154 kPa	1001.1
283.14 K, 28174 kPa	1001.2
283.14 K, 28195 kPa	1001.1
283.14 K, 28219 kPa	1001
283.14 K, 28239 kPa	1001.2
283.14 K, 28263 kPa	1001.3
283.14 K, 28285 kPa	1001.2
283.14 K, 28305 kPa	1001.2
283.14 K, 28326 kPa	1001.3
283.14 K, 28352 kPa	1001.1
283.14 K, 28370 kPa	1001.3
283.14 K, 28395 kPa	1001.3
283.14 K, 28416 kPa	1001.2
283.14 K, 28441 kPa	1001.3
283.14 K, 28461 kPa	1001.4
283.14 K, 28482 kPa	1001.2
283.14 K, 28503 kPa	1001.3
283.14 K, 28528 kPa	1001.3
283.14 K, 28550 kPa	1001.3
283.14 K, 28575 kPa	1001.4
283.14 K, 28596 kPa	1001.4
283.14 K, 28617 kPa	1001.3
283.14 K, 28642 kPa	1001.4
283.14 K, 28664 kPa	1001.4
283.14 K, 28685 kPa	1001.4
283.14 K, 28707 kPa	1001.4
283.14 K, 28732 kPa	1001.3
283.14 K, 28753 kPa	1001.4
283.14 K, 28775 kPa	1001.4
283.14 K, 28801 kPa	1001.5
283.14 K, 28822 kPa	1001.5
283.14 K, 28848 kPa	1001.4
283.14 K, 28870 kPa	1001.4
283.14 K, 28891 kPa	1001.4
283.14 K, 28912 kPa	1001.6
283.14 K, 28939 kPa	1001.6
283.14 K, 28961 kPa	1001.6
283.14 K, 28983 kPa	1001.6
283.14 K, 29009 kPa	1001.5
283.14 K, 29031 kPa	1001.6
283.14 K, 29058 kPa	1001.4
283.14 K, 29080 kPa	1001.6
283.14 K, 29101 kPa	1001.6
283.14 K, 29123 kPa	1001.6
283.14 K, 29150 kPa	1001.7
283.14 K, 29172 kPa	1001.6
283.14 K, 29195 kPa	1001.6
283.14 K, 29221 kPa	1001.7
283.14 K, 29244 kPa	1001.7
283.14 K, 29267 kPa	1001.7
283.14 K, 29290 kPa	1001.7
283.14 K, 29317 kPa	1001.7
283.14 K, 29339 kPa	1001.7
283.14 K, 29361 kPa	1001.8
283.14 K, 29388 kPa	1001.7
283.14 K, 29411 kPa	1001.7
283.14 K, 29438 kPa	1001.9
283.14 K, 29460 kPa	1001.9
283.14 K, 29483 kPa	1001.8
283.14 K, 29506 kPa	1001.8
283.14 K, 29534 kPa	1001.9
283.14 K, 29557 kPa	1001.9
283.14 K, 29579 kPa	1001.8
283.14 K, 29608 kPa	1001.8
283.14 K, 29631 kPa	1001.8
283.14 K, 29654 kPa	1001.9
283.14 K, 29681 kPa	1001.9
283.14 K, 29704 kPa	1002
283.14 K, 29727 kPa	1001.8
283.14 K, 29755 kPa	1001.9
283.14 K, 29778 kPa	1001.9
283.14 K, 29801 kPa	1002
283.14 K, 29829 kPa	1001.9
283.14 K, 29852 kPa	1002
283.14 K, 29876 kPa	1002
283.14 K, 29904 kPa	1002
283.14 K, 29928 kPa	1002
283.14 K, 29951 kPa	1002
283.14 K, 29975 kPa	1002
283.14 K, 30004 kPa	1002
283.14 K, 30027 kPa	1002
283.14 K, 30051 kPa	1002
283.14 K, 30079 kPa	1002
283.14 K, 30102 kPa	1002.1
283.14 K, 30131 kPa	1002.2
283.14 K, 30156 kPa	1002.2
283.14 K, 30180 kPa	1002.1
283.14 K, 30206 kPa	1002.2
283.14 K, 30254 kPa	1002.2
283.14 K, 30284 kPa	1002.1
283.14 K, 30307 kPa	1002.2
283.14 K, 30336 kPa	1002.2
283.14 K, 30361 kPa	1002.3
283.14 K, 30385 kPa	1002.3
283.14 K, 30410 kPa	1002.2
283.14 K, 30440 kPa	1002.3
283.14 K, 30465 kPa	1002.3
283.14 K, 30490 kPa	1002.3
283.14 K, 30520 kPa	1002.3
283.14 K, 30546 kPa	1002.3
283.14 K, 30571 kPa	1002.2
283.14 K, 30595 kPa	1002.3
283.14 K, 30620 kPa	1002.4
283.14 K, 30650 kPa	1002.3
283.14 K, 30675 kPa	1002.4
283.14 K, 30700 kPa	1002.4
283.14 K, 30730 kPa	1002.4
283.14 K, 30755 kPa	1002.4
283.14 K, 30785 kPa	1002.4
283.14 K, 30810 kPa	1002.4
283.14 K, 30836 kPa	1002.5
283.14 K, 30861 kPa	1002.5
283.14 K, 30892 kPa	1002.6
283.14 K, 30917 kPa	1002.5
283.14 K, 30943 kPa	1002.5
283.14 K, 30974 kPa	1002.6
283.14 K, 30999 kPa	1002.5
283.14 K, 31030 kPa	1002.6
283.14 K, 31056 kPa	1002.5
283.14 K, 31082 kPa	1002.6
283.14 K, 31108 kPa	1002.7
283.14 K, 31138 kPa	1002.5
283.14 K, 31165 kPa	1002.5
283.14 K, 31191 kPa	1002.7
283.14 K, 31223 kPa	1002.6
283.14 K, 31249 kPa	1002.7
283.14 K, 31275 kPa	1002.7
283.14 K, 31306 kPa	1002.7
283.14 K, 31332 kPa	1002.7
283.14 K, 31358 kPa	1002.7
283.14 K, 31390 kPa	1002.7
283.14 K, 31416 kPa	1002.8
283.14 K, 31443 kPa	1002.8
283.14 K, 31474 kPa	1002.7
283.14 K, 31501 kPa	1002.8
283.14 K, 31533 kPa	1002.8
283.14 K, 31560 kPa	1002.7
283.14 K, 31587 kPa	1002.8
283.14 K, 31614 kPa	1002.8
283.14 K, 31646 kPa	1002.9
283.14 K, 31672 kPa	1002.9
283.14 K, 31699 kPa	1003
283.14 K, 31732 kPa	1002.8
283.14 K, 31759 kPa	1002.8
283.14 K, 31791 kPa	1002.9
283.14 K, 31818 kPa	1002.9
283.14 K, 31845 kPa	1003
283.14 K, 31878 kPa	1002.9
283.14 K, 31905 kPa	1003.1
283.14 K, 31932 kPa	1002.9
283.14 K, 31960 kPa	1003
283.14 K, 31994 kPa	1003
283.14 K, 32021 kPa	1003
283.14 K, 32054 kPa	1003.1
283.14 K, 32082 kPa	1003
283.14 K, 32109 kPa	1003.2
283.14 K, 32143 kPa	1003.1
283.14 K, 32170 kPa	1003.1
283.14 K, 32198 kPa	1003.1
283.14 K, 32231 kPa	1003.2
283.14 K, 32260 kPa	1003.1
283.14 K, 32288 kPa	1003.2
283.14 K, 32321 kPa	1003.2
283.14 K, 32350 kPa	1003.3
283.14 K, 32378 kPa	1003.2
283.14 K, 32406 kPa	1003.3
283.14 K, 32441 kPa	1003.2
283.14 K, 32469 kPa	1003.3
283.14 K, 32503 kPa	1003.3
283.14 K, 32531 kPa	1003.3
283.14 K, 32560 kPa	1003.4
283.14 K, 32595 kPa	1003.3
283.14 K, 32624 kPa	1003.5
283.14 K, 32653 kPa	1003.3
283.14 K, 32687 kPa	1003.3
283.14 K, 32718 kPa	1003.3
283.14 K, 32747 kPa	1003.4
283.14 K, 32776 kPa	1003.4
283.14 K, 32810 kPa	1003.5
283.14 K, 32840 kPa	1003.5
283.14 K, 32869 kPa	1003.5
283.14 K, 32898 kPa	1003.6
283.14 K, 32934 kPa	1003.4
283.14 K, 32963 kPa	1003.5
283.14 K, 32992 kPa	1003.5
283.14 K, 33028 kPa	1003.6
283.14 K, 33057 kPa	1003.6
283.14 K, 33093 kPa	1003.5
283.14 K, 33125 kPa	1003.6
283.14 K, 33155 kPa	1003.7
283.14 K, 33185 kPa	1003.6
283.14 K, 33215 kPa	1003.7
283.14 K, 33251 kPa	1003.7
283.14 K, 33281 kPa	1003.7
283.14 K, 33311 kPa	1003.6
283.14 K, 33347 kPa	1003.7
283.14 K, 33377 kPa	1003.6
283.14 K, 33414 kPa	1003.7
283.14 K, 33444 kPa	1003.8
283.14 K, 33474 kPa	1003.8
283.14 K, 33511 kPa	1003.8
283.14 K, 33542 kPa	1003.9
283.14 K, 33572 kPa	1003.8
283.14 K, 33604 kPa	1003.8
283.14 K, 33641 kPa	1003.9
283.14 K, 33671 kPa	1003.9
283.14 K, 33708 kPa	1003.8
283.14 K, 33739 kPa	1003.8
283.14 K, 33770 kPa	1003.8
283.14 K, 33808 kPa	1004
283.14 K, 33839 kPa	1004
283.14 K, 33870 kPa	1003.9
283.14 K, 33907 kPa	1004
283.14 K, 33938 kPa	1003.9
283.14 K, 34406 kPa	1004.3
283.14 K, 34575 kPa	1004.3
283.14 K, 34576 kPa	1004.3
283.15 K, 100.4 kPa	985.9
